Data published in patent US6967215B2, “Tetrahydrocarbazoles, a process for the preparation of those compounds, and the use thereof” (Ciba Specialty Chemicals Corporation, priority 2000, dated 2005).
Values belong to the compound of their own block, whether it stands above or below them.

Legend:
Assay in all cases: MIC, microtitre dilution test (growth by optical density at 620 nm)
[1] = tested on: Corynebacterium xerosis ATCC 373; type: cell-based
Procedure: (§1) Casein/soybean flour peptone bouillon for the preparation of pre-cultures of the test bacteria and yeast.
(§2) The test substances are predissolved in dimethyl sulfoxide (DMSO) and tested in a dilution series of 1:2.
(§3) Bacteria and yeast are cultured overnight in CASO bouillon, the mould is cultured overnight on mycological slant agar, and washed off with 10 ml of 0.85% sodium chloride solution (+0.1% TritonX-100).
(§4) All the test organisms are adjusted to an organism count of 1-5×10^6 CFU/ml using 0.85% sodium chloride solution.
(§5) The test substances are pre-pipetted into microtitre plates in an amount of 8 μl per well.
(§6) Pre-diluted organism suspensions are diluted 1:100 in CASO bouillon (bacteria and yeast) or Sabouraud 2% glucose bouillon (mould) and are added in an amount of 192 μl per well to the test substances.
(§7) The test batches are incubated for 48 hours at 37° C. (bacteria and yeast) or for 5 days at 28° C. (mould).
(§8) After incubation, the growth is evaluated by reference to the turbidity of the test batches (optical density) at 620 nm in a microplate reader.
(§9) The minimum inhibitory concentration (MIC value) is the concentration of substance at which (compared with the growth of the control) an appreciable inhibition of growth (≦20% growth) of the test organisms is ascertained.
(§10) One microtitre plate is used for each test organism and substance concentration. All the substances are tested in duplicate.

[2] = tested on: Staphylococcus hominis DMS 20328; type: cell-based; settings: for MIC [ppm] S. hominis: Table 5
Procedure: as §1, §2, §3, §4, §5, §6, §7, §8, §9, §10

[3] = tested on: Enterococcus hirae ATCC 10541; type: cell-based
Procedure: as §1, §2, §3, §4, §5, §6, §7, §8, §9, §10

[4] = tested on: Candida albicans ATCC 10259; type: cell-based
Procedure: as §1, §2, §3, §4, §5, §6, §7, §8, §9, §10

[5] = tested on: Micrococcus luteus ATCC 9341; type: cell-based
Procedure: as §1, §2, §3, §4, §5, §6, §7, §8, §9, §10

[6] = tested on: Staphylococcus epidermidis ATCC 12228; type: cell-based; settings: for MIC Staphylococcus epidermidis ATCC 12228: Table 3
Procedure: as §1, §2, §3, §4, §5, §6, §7, §8, §9, §10

[7] = tested on: Trichoderma longibrachiatum DSM 768; type: cell-based; settings: Table 4
Procedure: (§11) Nutrient: Mycological slant agar for the pre-culture of moulds [table] The test substances are predissolved in dimethyl sulfoxide (DMSO) and tested in a dilution series of 1:2. Bacteria and yeast are cultured overnight in CASO bouillon, the mould is cultured overnight on mycological slant agar, and washed off with 10 ml of 0.85% sodium chloride solution (+0.1% TritonX-100). All the test organisms are adjusted to an organism count of 1-5×10^6 CFU/ml using 0.85% sodium chloride solution. The test substances are pre-pipetted into microtitre plates in an amount of 8 μl per well. Pre-diluted organism suspensions are diluted 1:100 in CASO bouillon (bacteria and yeast) or Sabouraud 2% glucose bouillon (mould) and are added in an amount of 192 μl per well to the test substances. The test batches are incubated for 48 hours at 37° C. (bacteria and yeast) or for 5 days at 28° C. (mould). After incubation, the growth is evaluated by reference to the turbidity of the test batches (optical density) at 620 nm in a microplate reader. The minimum inhibitory concentration (MIC value) is the concentration of substance at which (compared with the growth of the control) an appreciable inhibition of growth (≦20% growth) of the test organisms is ascertained. One microtitre plate is used for each test organism and substance concentration. All the substances are tested in duplicate.

[8] = tested on: Tr. mentagrophytes ATCC 9533; type: cell-based; settings: Table 4
Procedure: as §11

[9] = tested on: Epidermophyton floccosum DSM 10709; type: cell-based; settings: Table 4
Procedure: as §11

[10] = tested on: Aspergillus niger ATCC 6175; type: cell-based; settings: for MIC [ppm] A. niger: Table 5
Procedure: as §11

[11] = tested on: Trichophyton rubrum DSM 4167; type: cell-based; settings: Table 4
Procedure: as §11

[12] = tested on: Staphylococcus aureus (methicillin-resistant) NCTC 11940; type: cell-based; settings: Table 4
Procedure: as §1, §2, §3, §4, §5, §6, §7, §8, §9, §10

[13] = tested on: Streptococcus sobrinus DSM 20742; type: cell-based; settings: Table 4
Procedure: as §1, §2, §3, §4, §5, §6, §7, §8, §9, §10

[14] = tested on: Staphylococcus aureus (methicillin-resistant) NCTC 12493; type: cell-based; settings: Table 4
Procedure: as §1, §2, §3, §4, §5, §6, §7, §8, §9, §10

[15] = tested on: Selenomonas artemidis ATCC 43528; type: cell-based; settings: Table 4
Procedure: as §1, §2, §3, §4, §5, §6, §7, §8, §9, §10

[16] = tested on: P. ovale ATCC 14521; type: cell-based; settings: Table 4
Procedure: as §1, §2, §3, §4, §5, §6, §7, §8, §9, §10

[17] = tested on: Streptococcus mutans ATCC 25175; type: cell-based; settings: Table 4
Procedure: as §1, §2, §3, §4, §5, §6, §7, §8, §9, §10

[18] = tested on: Propionibacterium acnes ATCC 25746; type: cell-based; settings: Table 4
Procedure: as §1, §2, §3, §4, §5, §6, §7, §8, §9, §10

[19] = tested on: Staphylococcus aureus (rifampicin-resistant) NCTC 10703; type: cell-based; settings: Table 4
Procedure: as §1, §2, §3, §4, §5, §6, §7, §8, §9, §10

[20] = tested on: Porphyromonas gingivalis DSM 20709; type: cell-based; settings: Table 4
Procedure: as §1, §2, §3, §4, §5, §6, §7, §8, §9, §10

[21] = tested on: Actinomyces viscosus DSM 43329; type: cell-based; settings: Table 4
Procedure: as §1, §2, §3, §4, §5, §6, §7, §8, §9, §10

[22] = tested on: Staphylococcus aureus (penicillin-resistant) NCTC 10443; type: cell-based; settings: Table 4
Procedure: as §1, §2, §3, §4, §5, §6, §7, §8, §9, §10

[23] = tested on: Staphylococus aureus ATCC 9144; type: cell-based, Staphylococcus aureus; settings: Table 4
Procedure: as §11, with “All” for “Nutrient: Mycological slant agar for the pre-culture of moulds [table] The test substances are predissolved in dimethyl sulfoxide (DMSO) and tested in a dilution series of 1:2. Bacteria and yeast are cultured overnight in CASO bouillon, the mould is cultured overnight on mycological slant agar, and washed off with 10 ml of 0.85% sodium chloride solution (+0.1% TritonX-100). All”

[24] = tested on: P. aeruginosa; type: cell-based; settings: Table 5
Procedure: as §11, with “All” for “Nutrient: Mycological slant agar for the pre-culture of moulds [table] The test substances are predissolved in dimethyl sulfoxide (DMSO) and tested in a dilution series of 1:2. Bacteria and yeast are cultured overnight in CASO bouillon, the mould is cultured overnight on mycological slant agar, and washed off with 10 ml of 0.85% sodium chloride solution (+0.1% TritonX-100). All”

[25] = tested on: Escherichia coli NCTC 8196; type: cell-based; settings: Table 5
Procedure: as §1, §2, §3, §4, §5, §6, §7, §8, §9, §10

SMILES: CCc1cccc2c3c([nH]c12)C1C(=O)NC(=O)C1C1CCCCCCC31 (stereo not shown) [compound 89]
MIC Corynebacterium xerosis ATCC 373 ([1]; Table 3): ≦3.75 ppm
MIC Staphylococcus hominis DSM 20328 ([2]; Table 3): 7.5 ppm
MIC Enterococcus hirae ATCC 10541 ([3]; Table 3): >120 ppm
MIC Candida albicans ATCC 10259 ([4]; Table 3): >120 ppm
MIC Micrococcus luteus ATCC 9341 ([5]; Table 3): ≦3.75 ppm
MIC Staphylococcus epidermidis ATCC 12228 [6]: ≦3.75 ppm

SMILES: CCCN1CCC2c3c([nH]c4cc(C(F)(F)F)ccc34)C3C(=O)NC(=O)C3C2C1 (stereo not shown) [Compound 215]
MIC [ppm] P. aeruginosa [24]: 120 ppm
MIC [ppm] A. niger [10]: >120 ppm
MIC [ppm] S. hominis [2]: 30 ppm
MIC [ppm] E. coil [25]: 60 ppm

SMILES: CCCN1CCC2c3c([nH]c4c(C)cccc34)C3C(=O)NC(=O)C3C2C1 (stereo not shown) [Compound 222]
MIC [ppm] P. aeruginosa [24]: >120 ppm
MIC [ppm] A. niger [10]: >120 ppm
MIC [ppm] S. hominis [2]: 120 ppm
MIC [ppm] E. coil [25]: 120 ppm

SMILES: CCCN1CCC2c3c([nH]c4cc(F)c(F)cc34)C3C(=O)NC(=O)C3C2C1 (stereo not shown) [Compound 219]
MIC [ppm] P. aeruginosa [24]: >120 ppm
MIC [ppm] A. niger [10]: >120 ppm
MIC [ppm] S. hominis [2]: >120 ppm
MIC [ppm] E. coil [25]: >120 ppm

The next lines start with the values.

MIC Trichoderma longibrachiatum DSM 768 [7]: >10 ppm
MIC Tr. mentagrophytes ATCC 9533 [8]: 10 ppm
MIC Epidermophyton floccosum DSM 10709 [9]: 5.0 ppm
MIC Aspergillus niger ATCC 6175 ([10]; Table 4): >10 ppm
MIC Trichophyton rubrum DSM 4167 [11]: 10 ppm
MIC Staphylococcus aureus (methicillin-resistant) NCTC 11940 [12]: 5.0 ppm
MIC Corynebacterium xerosis ATCC 373 ([1]; Table 4): 5.0 ppm
MIC Streptococcus sobrinus DSM 20742 [13]: 6.25 ppm
MIC Staphylococcus hominis DSM 20328 ([2]; Table 4): 5.0 ppm
MIC Staphylococcus aureus (methicillin-resistant) NCTC 12493 [14]: 5.0 ppm
MIC Selenomonas artemidis ATCC 43528 [15]: 50.0 ppm
MIC P. ovale ATCC 14521 [16]: >10 ppm
MIC Enterococcus hirae ATCC 10541 ([3]; Table 4): >10 ppm
MIC Streptococcus mutans ATCC 25175 [17]: 5.0 ppm
MIC Propionibacterium acnes ATCC 25746 [18]: 6.25 ppm
MIC Staphylococcus aureus (rifampicin-resistant) NCTC 10703 [19]: 5.0 ppm
MIC Porphyromonas gingivalis DSM 20709 [20]: 3.125 ppm
MIC Actinomyces viscosus DSM 43329 [21]: 6.25 ppm
MIC Candida albicans ATCC 10259 ([4]; Table 4): >10 ppm
MIC Micrococcus luteus ATCC 9341 ([5]; Table 4): 5.0 ppm
MIC Staphylococcus aureus (penicillin-resistant) NCTC 10443 [22]: 5.0 ppm
MIC S. epidermidis ATCC 12228 ([6]; Table 4): 10 ppm
MIC Staphylococus aureus ATCC 9144 [23]: 5.0 ppm
SMILES: O=C1NC(=O)C2C1c1[nH]c3ccc(Br)cc3c1C1CCCCCC12 (stereo not shown) [compound 32]

MIC [ppm] P. aeruginosa [24]: 120 ppm
MIC [ppm] A. niger [10]: >120 ppm
MIC [ppm] S. hominis [2]: 120 ppm
MIC [ppm] E. coil [25]: >120 ppm
SMILES: CCCN1CCC2c3c([nH]c4cc(OC)ccc34)C3C(=O)NC(=O)C3C2C1 (stereo not shown) [Compound 231]

MIC Corynebacterium xerosis ATCC 373 ([1]; Table 3): ≦3.75 ppm
MIC Staphylococcus hominis DSM 20328 ([2]; Table 3): 7.5 ppm
MIC Enterococcus hirae ATCC 10541 ([3]; Table 3): 7.5 ppm
MIC Candida albicans ATCC 10259 ([4]; Table 3): >120 ppm
MIC Micrococcus luteus ATCC 9341 ([5]; Table 3): ≦3.75 ppm
MIC Staphylococcus epidermidis ATCC 12228 [6]: ≦3.75 ppm
SMILES: CC1(C)CC2c3c([nH]c4ccccc34)C3C(=O)NC(=O)C3C2C(C)(C)C1 (stereo not shown) [compound 63]

MIC [ppm] P. aeruginosa [24]: 120 ppm
MIC [ppm] A. niger [10]: >120 ppm
MIC [ppm] S. hominis [2]: >120 ppm
MIC [ppm] E. coil [25]: >120 ppm
SMILES: CCCN1CCC2c3c([nH]c4cc(F)ccc34)C3C(=O)NC(=O)C3C2C1 (stereo not shown) [Compound 207]
